This is an account of results in patent US6083941A, “Inhibition of NMDA receptor activity by pregnenolone sulfate derivatives” (Trustees of Boston University, priority 1998, dated 2000).

Where a name gives a salt, the structure may show the parent alone.

In one assay the test system is mice. Nature of the assay: Behavioral observational assessment after i.p. steroid. Particulars: 25 mg/kg i.p.; for behavioral assessment: 30 min. after injection. The assay is classed as in vivo. As for the experimental part:
To test for behavioral effects, PS, 5β3αS, 5β3αHS, βE2 (17)HS, or βE2 (3)HS (7 mg/ml in DMSO) was administered to mice i.p. at 25 mg/kg (5 animals per drug group). Behavioral assessments were made 30 min. after injection using a comprehensive observational assessment of motor-affective responses, sensory-motor responses, posture, muscle tone, equilibration, CNS excitation, and autonomic function (Irwin, R. P., et al., NeuroSci. Lett., 141:30-44 (1968)). […] The latency to loss of righting reflex was 2.5±0.5 min., and the latency to regain the righting reflex was 83±11 min. The rapidity of onset argues that 5β3αHS readily crosses the blood brain barrier.

Assay [1] relates to NMDA-induced cell death in primary neuronal cultures of rat hippocampal formation. As to the kind of experiment: Trypan blue exclusion, NMDA-induced cell death (excitotoxicity) in primary hippocampal cultures. The format is cell-based. The source says: Trypan blue exclusion was used to evaluate the ability of derivatives of pregnenolone sulfate to inhibit NMDA-induced cell death in primary neuronal cultures of rat hippocampal formation.
Mixed neuronal and glial cultures of hippocampal tissue were derived from fetal rats on day 18 of embryonic development and were maintained in culture for 16 to 24 days (Brewer, G. J., Brain Res., 494: 65-74 (1989)). Care for the animals used in this study was in accordance with institutional guidelines. Hippocampal tissue from Sprague-Dawley rat pups was collected immediately following removal from dams sacrificed with CO2 on embryonic day 18. Cells were dissociated by trituration in Ca^2 +/Mg^2 + free Hank's basic salt solution supplemented with 4.2 mM bicarbonate, 1 mM sodium pyruvate, 20 mM HEPES, 3 mg/ml BSA, and pelleted by centrifugation (900 rpm, 3 min). The resulting pellet was suspended in DMEM supplemented with 2.4 mg/ml BSA, 26.5 mM sodium bicarbonate, 1 mM sodium pyruvate, 20 mM HEPES, 10% FBS, 100 units/ml penicillin, 100 μg/ml streptomycin, and a modification of Brewers B16 defined components (with […] vitamin B12 and without catalase, glutathione, and superoxide dismutase) (Pike, C. J., et al., Neurosci. 13:1676-87 (1993)) and plated onto poly-L-lysine coated 24 well culture dishes (Nunclon) at a density of 15,000 cells/cm^2 and were maintained in a humidified incubator in 5% CO2 /95% air at 37° C. After 5 days in vitro, nonneuronal cell division was inhibited by exposure to 2×10^-6 M cytosine arabinoside for 48 hrs. Cells were subsequently maintained in medium identical to that used for platting without BSA or FBS.
The number of living neurons was determined by assessing the ability of cells to exclude trypan blue 16 hrs. after the addition of drug solutions to the medium of individual culture wells (Dawson, V. L., et al., Proc. Natl. Acad. Sci. USA, 88:6368-6371 (1991)). Drugs were introduced to cultures in 100 μl of conditioned media, collected from experimental cultures just prior to treatment, to a final volume of 0.5 ml. NMDA was dissolved in DMEM at concentrations of 0-5 mM so that addition of 10 μl yielded final concentrations of 0-100 μM. MK-801, a positive control, was dissolved in DMEM at a concentration of 1 mM so that addition of 5 μl yielded a final concentration of 10 μM. Control cultures were exposed only to an equivalent volume of DMEM, and concentration of DMSO (0.5%). The concentrations of the pregnenolone sulfate derivatives were as follows: 10-100 μM 5β3αS, 100 μM 5β3α hemisuccinate and 200 μM 17β-estradiol hemisuccinate.
After exposure to drugs, the medium was replaced by 0.1 M sodium phosphate buffer/0.4% trypan blue. Cell death was assessed by counting the number of trypan blue positive and negative neurons in five high power fields per culture well with an inverted phase contrast microscope using both bright field and phase settings. Cell death is expressed as the ratio of the number of trypan blue positive to total number of cells counted in each well×100 (percent cell death).

Assay [2] has as its system NMDA-induced convulsion and mortality in mice. Nature of the assay: NMDA-induced convulsion test (200 mg/kg NMDA). The format is in vivo. The protocol:
Male CD-1 mice (Charles River Laboratories, Wilmington, Mass.) weighing 20-25 g were used for the NMDA-induced convulsion test. Mice were injected intraperitoneally with the test compound dissolved in DMSO or with vehicle. NMDA (200 mg/kg, i.p.) was injected either 2 minutes after intravenous injection of test compound or 20 minutes after intraperitoneal injection of test compound.

Where [3] appears, read: mice, i.p., high dose, time limit 30 min.

Turning to `CC(=O)C1CCC2C3CC=C4CC(OS(=O)(=O)O)CCC4(C)C3CCC12C` (stereo not drawn) [PS, pregnenolone sulfate], the “behavioral assessment” value with mice was “unaffected except for a single decreased score on locomotor activity”.

With `CC(=O)[C@H]1CC[C@H]2[C@@H]3CC[C@@H]4C[C@H](OS(=O)(=O)O)CC[C@]4(C)[C@H]3CC[C@]12C` [5β3αS, 3α-hydroxy-5β-pregnan-20-one sulfate], the “behavioral assessment” value with mice was “very minor behavioral impairment”. In addition, in assay [1] (10-100 μM 5β3αS, FIG. 5), the “protection against chronic NMDA-induced cell death” value is given as “ineffective against chronic NMDA-induced cell death” and the “protection against short term NMDA excitotoxicity” value is “protects against short term NMDA excitotoxicity”. For the same molecule, the “block of cell death due to NMDA” value in assay [1] (steroid present during the exposure only) is reported as “completely blocked the cell death”. In assay [1] (steroid present only after the exposure), the “block of cell death due to NMDA” value is “considerably less effective”. In addition, the “seizures and mortality induced by NMDA” value in assay [2] (mice, i.v. administration, FIG. 8) is “effective in blocking seizures and mortality”. The “latency to onset of seizures” value in assay [2] (printed:) is listed as “increases the latency to onset of seizures”. For the same molecule, in assay [2] (printed: rats following i.v. injection of 200 mg/kg NMDA), the “mortality” value is given as “decreases mortality”.

For the molecule `CC(=O)[C@H]1CC[C@H]2[C@@H]3CC[C@@H]4C[C@H](OC(=O)CCC(=O)O)CC[C@]4(C)[C@H]3CC[C@]12C` [5β3αHS, 3α-hydroxy-5β-pregnan-20-one hemisuccinate], in the assay with mice, the “latency to loss of righting reflex” value came to 2.5 ± 0.5 min, the “latency to regain the righting reflex” value stood at 83 ± 11 min and the “behavioral assessment” value is listed as “lost virtually all muscle tone”. Further, in assay [1] (100 μM 5β3α hemisuccinate), the “inhibition of the cell death induced by chronic NMDA” value is given as 50% and the “inhibition of the cell death produced by short term exposure to NMDA” value was determined as 46%. Also, in assay [2] (mice, i.p., FIG. 7), the “mortality induced by 200 mg/kg of NMDA” value was “dose-dependently inhibited mortality” and the “tonic seizures induced by 200 mg/kg of NMDA” value is on record as “dose-dependently inhibited tonic seizures”. Further, in assay [2] (setting [3]), the “mortality induced by NMDA at the high dose” value is “completely block the mortality” and the “tonic seizures induced by NMDA at the high dose” value is “completely block the seizures”.
